The values below are quoted from earlier work in patent US20140228389A1, “DRY POWDER COMPOUND FORMULATIONS AND USES THEREOF” (Wyeth, LLC, priority 2006, published 2014).

The test system of one data set is opioid receptors. As to conditions: found in U.S. Ser. No. 11/441,395 and 11/441,452.
The conditions of data set [1]: white crystalline powder from Mallinckrodt Pharmaceuticals.

For the compound `C[N+]1(CC2CC2)CCC23c4c5ccc(O)c4OC2C(=O)CCC3(O)C1C5` (single isomer, unassigned) [R—N isomer of methylnaltrexone], the “opioid activity (agonist or antagonist)” value in the data set on opioid receptors was “opioid antagonist”. Turning to `C[N+]1(CC2CC2)CC[C@]23c4c5ccc(O)c4O[C@H]2C(=O)CC[C@@]3(O)[C@H]1C5.[Br-]` (stereo partly drawn) [S—N isomer of methylnaltrexone, S-Methylnaltrexone bromide], the “opioid activity (agonist or antagonist)” value with opioid receptors is given as “opioid agonist”.

With `C[N+]1(CC2CC2)CC[C@]23c4c5ccc(O)c4O[C@H]2C(=O)CC[C@@]3(O)[C@H]1C5.[Br-]` (stereo partly drawn) [Methylnaltrexone, Methylnaltrexone bromide], the solubility in water entry in data set [1] is on record as “freely soluble in water”.
